Test [1] concerns the target T1, aldose reductase derived from human muscle cells (Homo sapiens, UniProt P15121).
T1 construct: purchased Wako Pure Chemical Industries
The test is described as follows: Inhibitory activities of aldose reductase. In kind it is biochemical. As to conditions: for inhibitory activities of aldose reductase (in words): concentrations as in Table 1; for inhibition at 10 µM: final concentration 10 μM; for inhibition at 10 µM / inhibition at 20 µM / inhibition at 40 µM: average of two values, read-out: Inhibitory Ratio (%) of Aldose Reductase; for inhibition at 20 µM: final concentration 20 μM; for inhibition at 40 µM: final concentration 40 μM. As to the method: Inhibitory activities of aldose reductase of the compounds prepared in Examples 1 to 9 (TB3, TB4, TB5, TB6, TB7, TB8, TB9, compound (C081) or compound (C042)) were measured by the following method. Twenty microliters of 100 mM methylglyoxal was added to 10 μL of a sample (dissolved each compound in a 50% aqueous dimethyl sulfoxide solution), 100 μL of 0.2 M phosphate buffer (pH 6.2), 20 μL of 1 mM NADPH (phosphate buffer), and 10 μL of a solution of aldose reductase derived from human muscle cells (0.1 U/mL, manufactured by Wako Pure Chemical Industries, phosphate buffer). After 30 seconds passed, change in absorbance of NADPH at 340 nm was determined for 180 seconds. A 50% aqueous dimethyl sulfoxide solution was used as a negative control in place of the sample. In addition, the absorbance was determined using distilled water as a blank of each sample in place of the methylglyoxal solution. The found values are expressed as an average of the values in two experimental values. The inhibitory ratio (%) of aldose reductase was calculated in accordance with the following formula. Inhibitory Ratio (%)=[1−[(ΔAs−ΔAsb)/(ΔAc−ΔAcb)]]×100
Here, ΔAs and ΔAc are changes in absorbance per 1 minute of a sample solution, and a negative control solution, respectively, and ΔAsb and ΔAcb are changes in absorbance per 1 minute of blank of a sample solution, and a negative control solution, respectively.

The test system of test [2] is RAW 264.7 cells. The test is described as follows: Suppressive activities of NO production (LPS-induced, NO2- by Griess reagent). The test is classed as cell-based. As to conditions: for inhibition at 5 µM / inhibition at 10 µM / inhibition at 20 µM: Mus musculus, LPS, 16 hours, read-out: Suppressive Ability for Induction of NO Production by LPS (%); for inhibition at 5 µM: RAW264.7, 5 μM; for inhibition at 10 µM: RAW264.7, 10 μM; for inhibition at 20 µM: RAW264.7, 20 μM; for suppression of the induction of NO production by LPS (in words): concentrations as in Table 2. Here is the method: Suppressive activities of NO production of the compounds prepared in Examples 1 to 9 (TB3, TB4, TB5, TB6, TB7, TB8, TB9, compound (C081) and compound (C042)) were measured by the following method. RAW 264.7 cells (ATCC TIB 71) were suspended in Dulbecco's modified Eagle's medium (manufactured by Sigma, D5796) containing 10% fetal bovine serum (manufactured by Bio Whittaker, 14-506F), so as to have a concentration of 4×10^5 cells/mL, and the suspension was put to each well of a 48-well microtiter plate in an amount of 500 μL per well. The cells were cultured at 37° C. in the presence of 5% carbon dioxide gas. After 24 hours, the medium was exchanged with Dulbecco's modified Eagle's medium (manufactured by Bio Whittaker, 12-917F) containing 10% fetal bovine serum (manufactured by Bio Whittaker), 2 mM L-glutamine (manufactured by Life Tech Oriental Co., Ltd., 25030-149) without containing phenol red. A 10 mM, 5 mM, or 2.5 mM TB3, TB4, TB5, TB6, TB7, TB8, TB9, compound (C081) or compound (C042) (all are dimethyl sulfoxide solution) was added to each well in an amount of 1 μL per well. After additional 1 hour of culture, a 100 μg/mL aqueous lipopolysaccharide (LPS, manufactured by Sigma, L-2010) solution was added to each well in an amount of 5 μL per well, and the cells were cultured for 16 hours. Thereafter, the concentration of NO2^− which was produced by oxidation of NO in the medium was determined. In addition, there was set a group with addition of dimethyl sulfoxide in place of the each compound as a control. After the above-mentioned culture, 100 μL of a 4% grease reagent (manufactured by Sigma, G4410) was added to 100 μL of the supernatant of the culture medium, and the mixture was allowed to stand at room temperature for 15 minutes. Thereafter, absorbance at 540 nm was determined. The concentration of NO2^− in the medium was calculated from a calibration curve prepared from known concentrations of NaNO2 (manufactured by Sigma, S2252). All of the determinations were carried out twice. The suppressive ability of NO production of the each compound was calculated in accordance with the following formula.
(Griess reagent forms a coloured azo dye with nitrite.)

As to `C=C(C)C(CC/C(C)=C/Cc1c(OC)ccc(C(=O)/C=C/c2ccc(O)cc2)c1O)OO` (centres unmarked) [TB9, 1-[2-hydroxy-3-(6-hydroperoxy-3,7-dimethyl-2,7-octadienyl)-4-methoxyphenyl]-3-(4-hydroxyphenyl)-2-propen-1-one], in test [1], the “inhibitory activities of aldose reductase (in words)” value is recorded as “inhibitory activities of aldose reductase in a concentration-dependent manner”, the inhibition at 10 µM is 31.6%, the inhibition at 20 µM worked out at 44.7% and the inhibition at 40 µM amounted to 57.3%. In test [2], the inhibition at 5 µM was 11.2%, the inhibition at 10 µM stood at 29.2%, the inhibition at 20 µM is 49.6% and the “suppression of the induction of NO production by LPS (in words)” value was “suppressed the induction of NO production by LPS in a concentration-dependent manner”.
For `C/C(=C\Cc1c(O)ccc(C(=O)/C=C/c2ccc(O)cc2)c1O)CCC(O)C(C)(C)O` (centres unmarked) [TB5, 1-[2,4-dihydroxy-3-(6,7-dihydroxy-3,7-dimethyl-2-octenyl)phenyl]-3-(4-hydroxyphenyl)-2-propen-1-one], in test [1], the “inhibitory activities of aldose reductase (in words)” value is given as “inhibitory activities of aldose reductase in a concentration-dependent manner”, the inhibition at 10 µM stood at 35.1%, the inhibition at 20 µM came to 49.7% and the inhibition at 40 µM was 66.7%. Also, in test [2], the inhibition at 5 µM worked out at 17.9%, the inhibition at 10 µM stood at 35.2%, the inhibition at 20 µM was determined as 76% and the “suppression of the induction of NO production by LPS (in words)” value is listed as “suppressed the induction of NO production by LPS in a concentration-dependent manner”.
As to `COc1ccc(C(=O)/C=C/c2ccc(O)cc2)c(O)c1CC1C2(C)CCC(O2)C1(C)C` (centres unmarked) [TB7, 1-[3-(2,5-epoxy-2,6,6-trimethyl-cyclohexylmethyl)-2-hydroxy-4-methoxyphenyl]-3-(4-hydroxyphenyl)-2-propen-1-one], in test [1], the “inhibitory activities of aldose reductase (in words)” value is “inhibitory activities of aldose reductase in a concentration-dependent manner”, the inhibition at 10 µM is 20.1%, the inhibition at 20 µM worked out at 33.8% and the inhibition at 40 µM is 54.3%. Also, in test [2], the inhibition at 5 µM was 12.2%, the inhibition at 10 µM was 23.9%, the inhibition at 20 µM was 42.9% and the “suppression of the induction of NO production by LPS (in words)” value was “suppressed the induction of NO production by LPS in a concentration-dependent manner”.
Consider `CC(C)=CCCC(C)(O)C1Cc2c(ccc(C(=O)/C=C/c3ccc(O)cc3)c2O)O1` (centres unmarked) [TB3, 1-[2,3-dihydro-4-hydroxy-2-(1-hydroxy-1,5-dimethyl-4-hexenyl)-benzofuran-5-yl]-3-(4-hydroxyphenyl)-2-propen-1-one], for which, in test [1], the “inhibitory activities of aldose reductase (in words)” value is “inhibitory activities of aldose reductase in a concentration-dependent manner”, the inhibition at 10 µM stood at 14.2%, the inhibition at 20 µM is 30.1% and the inhibition at 40 µM was 53.8%. Moreover, in test [2], the inhibition at 5 µM stood at 8.9%, the inhibition at 10 µM was found to be 9.5%, the inhibition at 20 µM stood at 43.8% and the “suppression of the induction of NO production by LPS (in words)” value is listed as “suppressed the induction of NO production by LPS in a concentration-dependent manner”.
As for `COc1ccc(C(=O)/C=C/c2ccc(O)cc2)c(O)c1C/C=C(\C)C/C=C/C(C)(C)O` [Compound (C081), 1-[2-hydroxy-3-(7-hydroxy-3,7-dimethyl-2,5-octadienyl)-4-methoxyphenyl]-3-(4-hydroxyphenyl)-2-propen-1-one], in test [1], the “inhibitory activities of aldose reductase (in words)” value is “inhibitory activities of aldose reductase in a concentration-dependent manner”, the inhibition at 10 µM was 11.9%, the inhibition at 20 µM came out at 16.2% and the inhibition at 40 µM came to 26.7%. For the same molecule, in test [2], the inhibition at 10 µM was 31.6%, the inhibition at 20 µM is 53.7% and the “suppression of the induction of NO production by LPS (in words)” value was “suppressed the induction of NO production by LPS in a concentration-dependent manner”.
Take `CCOC(C)(C)C(O)CC/C(C)=C/Cc1c(O)ccc(C(=O)/C=C/c2ccc(O)cc2)c1O` (centres unmarked) [TB6, 1-[3-(7-ethoxy-6-hydroxy-3,7-dimethyl-2-octenyl)-2,4-dihydroxyphenyl]-3-(4-hydroxyphenyl)-2-propen-1-one]: in test [1], the “inhibitory activities of aldose reductase (in words)” value was “inhibitory activities of aldose reductase in a concentration-dependent manner”, the inhibition at 10 µM was determined as 41.9%, the inhibition at 20 µM came to 56.5% and the inhibition at 40 µM amounted to 66.8%. For the same molecule, in test [2], the inhibition at 5 µM amounted to 17.3%, the inhibition at 10 µM was determined as 29.4%, the inhibition at 20 µM amounted to 62.2% and the “suppression of the induction of NO production by LPS (in words)” value is given as “suppressed the induction of NO production by LPS in a concentration-dependent manner”.
Turning to `COc1ccc(C(=O)/C=C/c2ccc(O)cc2)c(O)c1C/C=C(\C)C/C=C/C(C)(C)OO` [TB8, 1-[2-hydroxy-3-(7-hydroperoxy-3,7-dimethyl-2,5-octadienyl)-4-methoxyphenyl]-3-(4-hydroxyphenyl)-2-propen-1-one], in test [1], the “inhibitory activities of aldose reductase (in words)” value is “inhibitory activities of aldose reductase in a concentration-dependent manner”, the inhibition at 10 µM stood at 17.9%, the inhibition at 20 µM was determined as 32.7% and the inhibition at 40 µM amounted to 44.2%. In addition, in test [2], the inhibition at 5 µM came to 12.2%, the inhibition at 10 µM was determined as 18.7%, the inhibition at 20 µM is 36.9% and the “suppression of the induction of NO production by LPS (in words)” value was “suppressed the induction of NO production by LPS in a concentration-dependent manner”.
With `COc1ccc(C(=O)/C=C/c2ccc(O)cc2)c2c1CC(C(C)(C)O)O2` (centres unmarked) [TB4, 1-[2,3-dihydro-2-(1-hydroxy-1-methylethyl)-4-methoxybenzofuran-7-yl]-3-(4-hydroxyphenyl)-2-propen-1-one], in test [1], the “inhibitory activities of aldose reductase (in words)” value is “inhibitory activities of aldose reductase in a concentration-dependent manner”, the inhibition at 10 µM was found to be 57.4% and the inhibition at 20 µM was 57.9%. Further, in test [2], the inhibition at 5 µM is 32.6%, the inhibition at 10 µM turned out to be 56.4%, the inhibition at 20 µM turned out to be 63.7% and the “suppression of the induction of NO production by LPS (in words)” value is reported as “suppressed the induction of NO production by LPS in a concentration-dependent manner”.
As for `CC(C)CCc1c(O)ccc(C(=O)/C=C/c2ccc(O)cc2)c1O` [Compound (C042), 1-[2,4-dihydroxy-3-(3-methylbutyl)phenyl]-3-(4-hydroxyphenyl)-2-propen-1-one], in test [1], the “inhibitory activities of aldose reductase (in words)” value is “inhibitory activities of aldose reductase in a concentration-dependent manner”, the inhibition at 10 µM turned out to be 47.8% and the inhibition at 20 µM came to 68.7%. In addition, in test [2], the inhibition at 10 µM came to 19.3%, the inhibition at 20 µM amounted to 50.2% and the “suppression of the induction of NO production by LPS (in words)” value is recorded as “suppressed the induction of NO production by LPS in a concentration-dependent manner”.

These data come from patent US7498357B2, “Chalcone compounds” (Takara Bio Inc., priority 2003, dated 2009).
